Columns and labels:
[1] = Saturated concentration calculated from Expressions 3 to 8 for 99.5% (v/v) ethanol; format: physicochemical; conditions: calculated by Expressions 7 and 8, natural logarithm
Text: Further, the ethanol concentration of 99.5% (v/v) was assigned to Z of Expressions 3, 4, 5, and 6 to obtain the values of the constants AI, BI, AII, and BII. Using these constants, the Log CI of the saturated concentration CI (% by weight) of the Form I-type crystal and the Log CII of the saturated concentration CII (% by weight) of the Form II-type crystal were obtained at each temperature (converting the unit to Kelvin) shown in Table 5 according to Expressions 7 and 8 above.

[2] = Solubility (saturated concentration) of reduced coenzyme Q10 crystals in hydrous ethanol, HPLC of filtered liquid phase; format: physicochemical
Description: The dissolved concentration of reduced coenzyme Q10 in a liquid phase was measured by analyze a liquid phase sample by high performance liquid chromatography under the following conditions.
• Column: SYMMETRY C18 (manufactured by Waters); 250 mm (length), 4.6 mm (inner diameter) • Mobile phase: C2H5OH:CH3OH=4:3 (v:v) • Detection wavelength: 210 nm • Flow rate: 1 ml/min • Retention time of reduced coenzyme Q10: 9.1 min.
The solubility (saturated concentration) (% by weight) of each of a reduced coenzyme Q10 Form I-type crystal (Form I-type crystal) and a reduced coenzyme Q10 Form II-type crystal (Form II-type crystal) in hydrous ethanol with an ethanol concentration per total volume of 99.5% (v/v), 95% (v/v), and 90% (v/v) at temperatures of 298.15K (25° C.), 303.15K (30° C.), 308.15K (35° C.), and 313.15K (40° C.) was obtained.
The solubility was measured by the following procedures.
To approximately 30 g of each hydrous ethanol, approximately 10 g of a Form I-type crystal or a Form II-type crystal was added, the mixture was stirred under a nitrogen atmosphere and maintained for approximately 1 hour at temperatures of 25° C., 30° C., 35° C., and 40° C. Sampling was performed at each temperature and each sample was filtered quickly to obtain a liquid phase sample. Each sample was analyzed under the above HPLC conditions and the solubility was calculated.

[3] = compared with Form I-type crystal; Patent Literature 4; cited from earlier work
[4] = compared with oxidized coenzyme Q10; cited from earlier work
[5] = 90% (v/v) ethanol, 298.15 K (25° C.)
[6] = 90% (v/v) ethanol, 303.15 K (30° C.)
[7] = 90% (v/v) ethanol, 308.15 K (35° C.)
[8] = 90% (v/v) ethanol, 313.15 K (40° C.)
[9] = 95% (v/v) ethanol, 298.15 K (25° C.)
[10] = 95% (v/v) ethanol, 303.15 K (30° C.)
[11] = 95% (v/v) ethanol, 308.15 K (35° C.)
[12] = 95% (v/v) ethanol, 313.15 K (40° C.)
[13] = 99.5% (v/v) ethanol, 298.15 K (25° C.)
[14] = 99.5% (v/v) ethanol, 303.15 K (30° C.)
[15] = 99.5% (v/v) ethanol, 308.15 K (35° C.)
[16] = 99.5% (v/v) ethanol, 313.15 K (40° C.)

With COc1c(O)c(C)c(C/C=C(\C)CC/C=C(\C)CC/C=C(\C)CC/C=C(\C)CC/C=C(\C)CC/C=C(\C)CC/C=C(\C)CC/C=C(\C)CC/C=C(\C)CCC=C(C)C)c(O)c1OC [Form I, reduced coenzyme Q10] the “Log of saturated concentration (% by weight)” value (“Log … (% by weight)” below) ([1]; 10° C.) was −2.686, the “Log … (% by weight)” value ([1]; 20° C.) was −0.584 and the “Log … (% by weight)” value ([1]; 25° C.) was 0.467. The “Log … (% by weight)” value ([1]; 30° C.) was 1.517, the “Log … (% by weight)” value ([1]; 35° C.) was 2.568 and the Solubility [2, 5] was 0.13 % by weight. For the same compound, the Solubility [2, 6] was 0.18 % by weight, the Solubility [2, 7] was 0.29 % by weight and the Solubility [2, 8] was 0.88 % by weight. It also gave a Solubility [2, 9] of 0.65 % by weight, a Solubility [2, 10] of 1.01 % by weight and a Solubility [2, 11] of 2.33 % by weight. The Solubility [2, 12] was 8.98 % by weight, the Solubility [2, 13] was 2.01 % by weight and the Solubility [2, 14] was 4.53 % by weight. The Solubility [2, 15] was 12.6 % by weight, the Solubility [2, 16] was 46.3 % by weight and the “Solubility compared between crystal forms” value ([2]; hydrous ethanol with any concentration (99.5, 95, 90% v/v)) was “higher than that of the Form II-type crystal”.

In the case of COc1c(O)c(C)c(C/C=C(\C)CC/C=C(\C)CC/C=C(\C)CC/C=C(\C)CC/C=C(\C)CC/C=C(\C)CC/C=C(\C)CC/C=C(\C)CC/C=C(\C)CCC=C(C)C)c(O)c1OC [Form II, reduced coenzyme Q10], the “Log … (% by weight)” value ([1]; 10° C.) is reported as −3.858, the “Log … (% by weight)” value ([1]; 20° C.) is reported as −2.145 and the “Log … (% by weight)” value ([1]; 25° C.) is reported as −1.288. For the same compound, the “Log … (% by weight)” value ([1]; 30° C.) was −0.432, the “Log … (% by weight)” value ([1]; 35° C.) was 0.425 and the “Stability of crystal form” value [3] was “much more stable than the conventional reduced coenzyme Q10”. The Solubility [2, 5] was 0.10 % by weight, the Solubility [2, 6] was 0.13 % by weight and the Solubility [2, 7] was 0.23 % by weight. The Solubility [2, 8] was 0.41 % by weight, the Solubility [2, 9] was 0.37 % by weight and the Solubility [2, 10] was 0.52 % by weight. The Solubility [2, 11] was 0.86 % by weight, the Solubility [2, 12] was 2.81 % by weight and the Solubility [2, 13] was 1.22 % by weight. It also gave a Solubility [2, 14] of 2.32 % by weight, a Solubility [2, 15] of 5.51 % by weight and a Solubility [2, 16] of 17.9 % by weight.

In the case of COc1c(O)c(C)c(C/C=C(\C)CC/C=C(\C)CC/C=C(\C)CC/C=C(\C)CC/C=C(\C)CC/C=C(\C)CC/C=C(\C)CC/C=C(\C)CC/C=C(\C)CCC=C(C)C)c(O)c1OC [reduced coenzyme Q10], the Oral absorbability [4] is listed as “higher oral absorbability than that of oxidized coenzyme Q10”.

Reference: US20230339836A1, “METHOD FOR PRODUCING REDUCED COENZYME Q10 FORM II CRYSTALS” (KANEKA CORPORATION, priority 2020, published 2023)
